The subject of assay [1] is CHO-K1. Nature of the assay: benchmark concentration for 30% increase in micronucleus frequency (BMC30); higher = less potent clastogen. As to the method:
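Benchmark concentration modelling (PROAST, Hill/exponential model families) of the 19-concentration flow-cytometric micronucleus assay in CHO-K1 cells, with and without rat liver S9. Only non-cytotoxic and adequate (relative survival >=40%) concentrations were used. BMR was a 30% increase in %MN (BMC30) or a 60% increase in %hypodiploid (BMC60) over control.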

Assay [2] has as its system CHO-K1. The experiment in a line: benchmark concentration for 60% increase in hypodiploid frequency (BMC60); higher = less potent aneugen. The gist of the method: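 Chinese hamster ovary (CHO) cells were treated with 19 concentrations from 4.50 to 200 µM in 1% DMSO vehicle, either for 24 h at 37 °C without S9 or for 3–4 h with Aroclor 1254-induced rat liver S9 followed by 24 h recovery. Flow cytometry measured the percentage of hypodiploid nuclei, with concentrations giving relative survival below 40% excluded and the benchmark response set at a 60% increase over the DMSO control. The benchmark concentration was fitted in PROAST using Hill and exponential model families.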

The mark [3] stands for this setting: S9 metabolic activation: without S9.
Where [4] appears, read: S9 metabolic activation: with S9.

Structures can show the parent of a compound that is named as a salt. ± gives the standard deviation of the averaged measurements.

Take `CN(Cc1cnc2nc(N)nc(N)c2n1)c1ccc(C(=O)N[C@@H](CCC(=O)O)C(=O)O)cc1` [Methotrexate]: the benchmark concentration came out at 51 µM in the assay with CHO-K1 [1] (setting [3]) and 59 µM with CHO-K1 [2] (setting [3]).
As to `COC(=O)c1ccccc1O` [Methyl salicylate], the benchmark concentration in the assay on CHO-K1 [1] (setting [4]) came out at 58 µM; in the assay with CHO-K1 [1] (setting [3]) it was 15 µM; in the assay with CHO-K1 [2] (setting [3]) it was 67 µM.
Turning to `CN(C)c1ccc(C(=O)c2ccc(N(C)C)cc2)cc1` [Michlers ketone], the benchmark concentration worked out at 27 µM in the assay on CHO-K1 [1] (setting [4]) and 22 µM with CHO-K1 [2] (setting [4]).
Turning to `ClC1(Cl)C2(Cl)C3(Cl)C4(Cl)C(Cl)(Cl)C5(Cl)C3(Cl)C1(Cl)C5(Cl)C24Cl` (configuration not stated) [Mirex], the benchmark concentration came out at 36 µM in the assay on CHO-K1 [1] (setting [3]) and 28 µM in the assay on CHO-K1 [2] (setting [3]).
Turning to `CCSC(=O)N1CCCCCC1` [Molinate], the benchmark concentration stood at 41 µM with CHO-K1 [1] (setting [4]) and 61.5 ± 3.5 µM in the assay on CHO-K1 [2] (setting [3]).
`CN(C)C(=O)Nc1ccc(Cl)cc1` [Monuron]: the benchmark concentration turned out to be 8.6 µM in the assay with CHO-K1 [1] (setting [3]) and 82 µM in the assay on CHO-K1 [2] (setting [3]).
The corresponding values for `C=CC(=O)NCNC(=O)C=C` [N,N'-Methylenebisacrylamide] are 44 µM and 62 µM.
For `CCNc1ccccc1` [N-Ethylaniline] the same measures were 77 µM and 35 µM.
The corresponding values for `CCN(CC)N=O` [N-Nitrosodiethylamine] are 21 µM and 31 µM.
For `O=NN(c1ccccc1)c1ccccc1` [N-Nitrosodiphenylamine], the benchmark concentration is 120 µM with CHO-K1 [1] (setting [4]), 72 µM in the assay with CHO-K1 [1] (setting [3]) and 25 µM with CHO-K1 [2] (setting [3]).
Take `Nc1ccc(Nc2ccccc2)cc1` [N-Phenyl-1,4-benzenediamine]: the figures for the benchmark concentration in the assay on CHO-K1 [1] (setting [4]) and in the assay on CHO-K1 [2] (setting [3]) were 87 µM and < 4.5 µM, respectively.
As for `CC1(C)NC(=O)N(c2ccc([N+](=O)[O-])c(C(F)(F)F)c2)C1=O` [Nilutamide], the figures for the benchmark concentration with CHO-K1 [1] (setting [3]) and with CHO-K1 [2] (setting [3]) were 21 µM and 39 µM, respectively.
The corresponding values for `O=C1CN(/N=C/c2ccc([N+](=O)[O-])o2)C(=O)N1` [Nitrofurantoin] are 55 µM and 31 µM.
The corresponding values for `NC(=O)N/N=C/c1ccc([N+](=O)[O-])o1` [Nitrofurazone] are 24 µM and 68 µM.
With `O=C(O)C(F)(F)C(F)(F)C(F)(F)C(F)(F)C(F)(F)C(F)(F)C(F)(F)C(F)(F)C(F)(F)F` [PFDA], the benchmark concentration in the assay on CHO-K1 [1] (setting [4]) and with CHO-K1 [2] (setting [3]) was 73 µM throughout.
Turning to `CCCCC=O` [Pentanal], the figures for the benchmark concentration with CHO-K1 [1] (setting [4]) and in the assay on CHO-K1 [2] (setting [3]) were 60 µM and 140 µM, respectively.
In the case of `Oc1ccccc1` [Phenol], the benchmark concentration in the assay with CHO-K1 [1] (setting [3]) was found to be 100 µM; in the assay with CHO-K1 [2] (setting [3]), 57 µM.
As for `c1ccc2c(c1)Nc1ccccc1S2` [Phenothiazine], the values for the benchmark concentration with CHO-K1 [1] (setting [4]) and with CHO-K1 [2] (setting [4]) were 17 µM and 25 µM, respectively.
Turning to `CCc1ccc(CCOc2ccc(CC3SC(=O)NC3=O)cc2)nc1` (configuration not stated) [Pioglitazone hydrochloride], the benchmark concentration with CHO-K1 [1] (setting [3]) was < 4.5 µM; in the assay with CHO-K1 [2] (setting [3]) it was 7.6 µM.
Turning to `c1cc2ccc3cccc4ccc(c1)c2c34` [Pyrene], the results for the benchmark concentration in the assay with CHO-K1 [1] (setting [4]) and with CHO-K1 [2] (setting [3]) were 40 µM and 110 µM, respectively.
In the case of `C/C=C/C=C/C(=O)O` [Sorbic acid], the benchmark concentration in the assay with CHO-K1 [1] (setting [3]) came to 29 µM; in the assay on CHO-K1 [2] (setting [3]) it was 37 µM.
For `c1ccc(C2CO2)cc1` (configuration not stated) [Styrene oxide] the same measures were 96 µM and 19 µM.
`O=C(OC[C@H]1O[C@@H](OC(=O)c2cc(O)c(O)c(OC(=O)c3cc(O)c(O)c(O)c3)c2)[C@H](OC(=O)c2cc(O)c(O)c(OC(=O)c3cc(O)c(O)c(O)c3)c2)[C@@H](OC(=O)c2cc(O)c(O)c(OC(=O)c3cc(O)c(O)c(O)c3)c2)[C@@H]1OC(=O)c1cc(O)c(O)c(OC(=O)c2cc(O)c(O)c(O)c2)c1)c1cc(O)c(O)c(OC(=O)c2cc(O)c(O)c(O)c2)c1` [Tannic acid]: the benchmark concentration with CHO-K1 [1] (setting [4]) is 0.9 µM; in the assay on CHO-K1 [2] (setting [4]), 1.3 µM; with CHO-K1 [2] (setting [3]), 0.84 µM.
For `COC(=O)NC(=S)Nc1ccccc1NC(=S)NC(=O)OC` [Thiophanate-methyl], the benchmark concentration was determined as 16.7 ± 4.2 µM in the assay on CHO-K1 [1] (setting [3]) and 20.5 ± 3.5 µM in the assay with CHO-K1 [2] (setting [3]).
As for `O=c1n(CC2CO2)c(=O)n(CC2CO2)c(=O)n1CC1CO1` (configuration not stated) [Triglycidyl isocyanurate], the benchmark concentration was < 4.5 µM in the assay on CHO-K1 [1] (setting [4]), < 4.5 µM with CHO-K1 [1] (setting [3]), 53 µM in the assay with CHO-K1 [2] (setting [4]) and 25 µM in the assay on CHO-K1 [2] (setting [3]).
In the case of `ClC(Cl)=C(c1ccc(Cl)cc1)c1ccc(Cl)cc1` [p,p'-DDE], the benchmark concentration was 51 µM with CHO-K1 [1] (setting [4]), 29 µM in the assay on CHO-K1 [1] (setting [3]) and 16 µM in the assay with CHO-K1 [2] (setting [3]).
For `Cc1ccc(O)cc1` [p-Cresol], the benchmark concentration in the assay on CHO-K1 [1] (setting [3]) was found to be 73 µM; in the assay with CHO-K1 [2] (setting [3]) it was 79 µM.
With `CC(C)(C)c1cc(O)ccc1O` [tert-Butylhydroquinone], the benchmark concentration with CHO-K1 [1] (setting [4]) turned out to be 22 µM; in the assay with CHO-K1 [2] (setting [4]), 23 µM.

The values above are taken from the supplement of paper PMC9151546.
